Results as given in ChEMBL document CHEMBL1201862, “PubChem BioAssay data set” (2004).
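The compound was tested at five concentrations on cells cultured in 96-well plates, with a 48-hour exposure period. At the GI50, growth is halved.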 Activity calls are given as the source filed them. Cut-off read from the data, not from the text of the source: active = GI50 up to about 1.1 µM and inactive = higher.

Tests used:
Assay in all cases: NCI-60 cell line screen, 48 h
[1] = test system: OVCAR-5
[2] = test system: RXF 393
[3] = test system: SK-MEL-5
[4] = test system: HOP-62
[5] = test system: MDA-MB-231
[6] = test system: COLO 205
[7] = test system: MOLT-4
[8] = test system: NCI-H23
[9] = test system: T47D
[10] = test system: PC-3
[11] = test system: OVCAR-4
[12] = test system: SF-539
[13] = test system: IGROV-1
[14] = test system: A549
[15] = test system: NCI/ADR-RES
[16] = test system: HOP-92
[17] = test system: SF-268
[18] = test system: Malme-3M
[19] = test system: A498
[20] = test system: Hs-578T
[21] = test system: SK-MEL-28
[22] = test system: SW-620
[23] = test system: HL-60
[24] = test system: SNB-75
[25] = test system: MCF7
[26] = test system: U-251
[27] = test system: SF-295
[28] = test system: CCRF-CEM
[29] = test system: HCC 2998
[30] = test system: OVCAR-8
[31] = test system: OVCAR-3
[32] = test system: SN12C
[33] = test system: HCT-15
[34] = test system: MDA-MB-435
[35] = test system: TK-10
[36] = test system: K562
[37] = test system: SK-OV-3
[38] = test system: SK-MEL-2
[39] = test system: EKVX
[40] = test system: MDA-N
[41] = test system: NCI-H522
[42] = test system: 786-0
[43] = test system: SNB-19
[44] = test system: LOX IMVI
[45] = test system: UACC-257
[46] = test system: NCI-H460
[47] = test system: DU-145
[48] = test system: CAKI-1
[49] = test system: HT-29
[50] = test system: ACHN
[51] = test system: UACC-62
[52] = test system: KM12
[53] = test system: SR
[54] = test system: HCT-116
[55] = test system: M14
[56] = test system: UO-31
[57] = test system: NCI-H226
[58] = test system: RPMI-8226

CC(C)(C)C1=C(Br)C(O)(C(C)(C)C)OP1(=O)c1ccccc1 (centres undefined)
GI50 [1]: > 100 µM (inactive) | GI50 [2]: > 100 µM (inactive) | GI50 [3]: > 100 µM (inactive) | GI50 [4]: > 100 µM (inactive) | GI50 [5]: > 100 µM (inactive) | GI50 [6]: > 100 µM (inactive) | GI50 [7]: > 100 µM (inactive) | GI50 [8]: > 100 µM (inactive) | GI50 [9]: > 100 µM (inactive) | GI50 [10]: > 100 µM (inactive) | GI50 [11]: > 100 µM (inactive) | GI50 [12]: > 100 µM (inactive) | GI50 [13]: > 100 µM (inactive) | GI50 [14]: > 100 µM (inactive) | GI50 [15]: > 100 µM (inactive) | GI50 [16]: > 100 µM (inactive) | GI50 [17]: > 100 µM (inactive) | GI50 [18]: > 100 µM (inactive) | GI50 [19]: > 100 µM (inactive) | GI50 [20]: > 100 µM (inactive) | GI50 [21]: > 100 µM (inactive) | GI50 [22]: > 100 µM (inactive) | GI50 [23]: > 100 µM (inactive) | GI50 [24]: > 100 µM (inactive) | GI50 [25]: 0.805 µM (active) | GI50 [26]: > 100 µM (inactive) | GI50 [27]: > 100 µM (inactive) | GI50 [28]: > 100 µM (inactive) | GI50 [29]: > 100 µM (inactive) | GI50 [30]: > 100 µM (inactive) | GI50 [31]: > 100 µM (inactive) | GI50 [32]: > 100 µM (inactive) | GI50 [33]: > 100 µM | GI50 [34]: > 100 µM (inactive) | GI50 [35]: > 100 µM (inactive) | GI50 [36]: > 100 µM (inactive) | GI50 [37]: > 100 µM (inactive) | GI50 [38]: > 100 µM (inactive) | GI50 [39]: > 100 µM (inactive) | GI50 [40]: > 100 µM (inactive) | GI50 [41]: > 100 µM (inactive) | GI50 [42]: > 100 µM (inactive) | GI50 [43]: > 100 µM (inactive) | GI50 [44]: > 100 µM (inactive) | GI50 [45]: > 100 µM (inactive) | GI50 [46]: > 100 µM (inactive) | GI50 [47]: > 100 µM (inactive) | GI50 [48]: > 100 µM (inactive) | GI50 [49]: > 100 µM (inactive) | GI50 [50]: > 100 µM (inactive) | GI50 [51]: > 100 µM (inactive) | GI50 [52]: > 100 µM (inactive)

O=C1CS(=O)(=O)C(c2cccc(Oc3ccccc3)c2)N1c1cccc(Cl)c1Cl (centres undefined)
GI50 [1]: 47.5 µM (inactive) | GI50 [2]: 25.1 µM (inactive) | GI50 [3]: 18.2 µM (inactive) | GI50 [4]: 40.6 µM (inactive) | GI50 [53]: 18.7 µM (inactive) | GI50 [5]: 23.8 µM (inactive) | GI50 [6]: 26.9 µM (inactive) | GI50 [7]: 20.2 µM (inactive) | GI50 [9]: 26.2 µM (inactive) | GI50 [10]: 26.4 µM (inactive) | GI50 [11]: 20.4 µM (inactive) | GI50 [54]: 22.4 µM (inactive) | GI50 [12]: 20.8 µM (inactive) | GI50 [14]: > 100 µM (inactive) | GI50 [16]: 7.26 µM (inactive) | GI50 [55]: 39.1 µM (inactive) | GI50 [17]: 21.5 µM (inactive) | GI50 [18]: 24.3 µM (inactive) | GI50 [20]: 29.8 µM (inactive) | GI50 [21]: 51.4 µM (inactive) | GI50 [22]: 28.8 µM (inactive) | GI50 [23]: 31 µM (inactive) | GI50 [24]: 29.3 µM (inactive) | GI50 [56]: 29.5 µM (inactive) | GI50 [25]: 6.11 µM (inactive) | GI50 [26]: 20 µM (inactive) | GI50 [27]: 33.8 µM (inactive) | GI50 [28]: 10.7 µM (inactive) | GI50 [30]: 19.1 µM (inactive) | GI50 [57]: 35.7 µM (inactive) | GI50 [31]: 21.5 µM (inactive) | GI50 [32]: 19.8 µM (inactive) | GI50 [34]: 19.7 µM (inactive) | GI50 [35]: 25.3 µM (inactive) | GI50 [36]: 16.6 µM (inactive) | GI50 [37]: 67 µM (inactive) | GI50 [38]: 19.5 µM (inactive) | GI50 [39]: 23.8 µM (inactive) | GI50 [40]: 19.6 µM (inactive) | GI50 [41]: 18 µM (inactive) | GI50 [42]: 15 µM (inactive) | GI50 [43]: 39.5 µM (inactive) | GI50 [44]: 17.7 µM (inactive) | GI50 [45]: 21 µM (inactive) | GI50 [46]: 36.2 µM (inactive) | GI50 [47]: 42.6 µM (inactive) | GI50 [48]: 31.3 µM (inactive) | GI50 [49]: 25.2 µM (inactive) | GI50 [50]: 20.3 µM (inactive) | GI50 [51]: 13.5 µM (inactive) | GI50 [52]: 26.7 µM (inactive)

Cn1c(N/N=C/c2ccccc2)nc(-c2ccc3c(c2)OCO3)c(C#N)c1=O
GI50 [1]: > 100 µM (inactive) | GI50 [2]: 81.8 µM (inactive) | GI50 [3]: 69 µM (inactive) | GI50 [4]: > 100 µM (inactive) | GI50 [53]: 25.5 µM (inactive) | GI50 [5]: 14 µM (inactive) | GI50 [6]: 58.3 µM (inactive) | GI50 [7]: 48.4 µM (inactive) | GI50 [8]: > 100 µM (inactive) | GI50 [9]: > 100 µM (inactive) | GI50 [10]: 56.8 µM (inactive) | GI50 [11]: 61.7 µM (inactive) | GI50 [54]: > 100 µM (inactive) | GI50 [12]: > 100 µM (inactive) | GI50 [13]: 20.9 µM (inactive) | GI50 [14]: 45.4 µM (inactive) | GI50 [15]: > 100 µM (inactive) | GI50 [16]: 2.85 µM (inactive) | GI50 [55]: > 100 µM (inactive) | GI50 [17]: > 100 µM (inactive) | GI50 [18]: > 100 µM (inactive) | GI50 [19]: 95.9 µM (inactive) | GI50 [20]: 48.5 µM (inactive) | GI50 [21]: > 100 µM (inactive) | GI50 [22]: > 100 µM (inactive) | GI50 [23]: 39.9 µM (inactive) | GI50 [24]: > 100 µM (inactive) | GI50 [56]: 77.3 µM (inactive) | GI50 [25]: > 100 µM (inactive) | GI50 [26]: > 100 µM (inactive) | GI50 [27]: 84.9 µM (inactive) | GI50 [28]: 94 µM (inactive) | GI50 [30]: 22.8 µM (inactive) | GI50 [31]: 27.5 µM (inactive) | GI50 [32]: 65.2 µM (inactive) | GI50 [33]: 36.5 µM | GI50 [34]: 73.8 µM (inactive) | GI50 [35]: 69.7 µM (inactive) | GI50 [36]: 87.3 µM (inactive) | GI50 [37]: > 100 µM (inactive) | GI50 [38]: > 100 µM (inactive) | GI50 [39]: 70.6 µM (inactive) | GI50 [40]: > 100 µM (inactive) | GI50 [41]: > 100 µM (inactive) | GI50 [42]: > 100 µM (inactive) | GI50 [43]: > 100 µM (inactive) | GI50 [44]: 55.6 µM (inactive) | GI50 [45]: 77.1 µM (inactive) | GI50 [46]: 87.7 µM (inactive) | GI50 [47]: 84.5 µM (inactive) | GI50 [48]: 99.3 µM (inactive) | GI50 [49]: > 100 µM (inactive) | GI50 [50]: 59.3 µM (inactive) | GI50 [58]: 47.1 µM (inactive) | GI50 [51]: 40.3 µM (inactive) | GI50 [52]: 88.1 µM (inactive)
